One compound from US20030207872A1, “OMEGA-CARBOXYARYL SUBSTITUTED DIPHENYL UREAS AS RAF KINASE INHIBITORS” (BAYER CORPORATION, priority 2002, published 2003) can be followed below.

The term melting point denotes the temperature, or range, at which the solid turns liquid.

`COC(=O)c1ccc(Oc2ccc(NC(=O)Nc3ccc(Cl)c(C(F)(F)F)c3)cc2)cn1` [Entry 55, N-(4-chloro-3-(trifluoromethyl)phenyl)-N′-(4-(2-(methoxycarbonyl)-5-pyridyloxy)phenyl) urea] showed a melting point of 228 to 230 °C.
